# Biological target: T1, human FAAH (Homo sapiens, UniProt O00519)
# T1 construct: host or cells: COS-7 cells, transient transfection; 13,000 g membrane fraction solubilised in 1% Triton X-100
# T1 sequence (O00519 1-579): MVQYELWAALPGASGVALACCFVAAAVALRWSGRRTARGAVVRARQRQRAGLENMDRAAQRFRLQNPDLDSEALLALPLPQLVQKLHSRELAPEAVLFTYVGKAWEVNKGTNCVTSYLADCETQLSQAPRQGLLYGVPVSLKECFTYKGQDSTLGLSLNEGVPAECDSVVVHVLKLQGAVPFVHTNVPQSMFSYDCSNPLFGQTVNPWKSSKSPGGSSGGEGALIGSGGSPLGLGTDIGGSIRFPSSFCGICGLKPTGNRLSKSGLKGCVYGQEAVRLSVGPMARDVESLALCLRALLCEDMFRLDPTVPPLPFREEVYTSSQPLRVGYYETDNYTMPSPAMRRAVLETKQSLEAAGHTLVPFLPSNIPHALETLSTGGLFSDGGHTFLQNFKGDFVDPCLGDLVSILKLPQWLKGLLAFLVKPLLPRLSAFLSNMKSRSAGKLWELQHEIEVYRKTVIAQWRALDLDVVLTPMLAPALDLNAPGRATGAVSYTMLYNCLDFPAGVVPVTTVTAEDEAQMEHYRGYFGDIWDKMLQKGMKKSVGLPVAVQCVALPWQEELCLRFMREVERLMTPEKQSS
# Assay: Human FAAH biochemical inhibition assay (AMC arachidonoyl amide fluorescence)
# Conditions: not given
# Method: The resulting solution is added into one dish of 30-40% confluent COS-7 cells in a drop-wise manner. The COS-7 cell dish is subsequently incubated for 48 hours. The cells are then harvested.
# Harvest procedure: Media was aspirated from the dishes and the cells rinsed with 10 mL PBS. The PBS was removed and 3 mLs of PBS added to the dish. The dish was scraped to resuspend the cells, and the subsequent cell suspension collected into a 15 ml conical tube. The cells were pelleted by centrifugation at 1200 rpm for 5 minutes in a bench top centrifuge. PBS was removed and the cell pellet snap frozen in liquid nitrogen, store at −80 C.
# The pellets were dounce homogenized and then sonicated to produce cell extract. The cell extract was subsequently centrifuged at 1000 g to remove cellular debris. The pellet was discarded and the supernatant centrifuged at 13,000 g for 20 minutes. The pellet contained membrane bound FAAH. The supernatant was discarded and the pellet resolubilized.
# (2) Re-solubilization: The fraction of interest, (13,000 g, membrane fraction) was re-suspended in re-suspension buffer (20 mM Hepes pH 7.8, 10% v/v Glycerol, 1 mM EDTA, 1% Triton X-100) (2.3 mL re-suspension and the sample incubated on ice for 1 hour and then centrifuged to at 13,000 g remove any particulate matter. The supernatant containing solubilized human FAAH was aliquoted and snap frozen in liquid nitrogen and stored at −80° C. until use.
# FAAH reaction buffer: 50 mM Hepes (pH 7.5), 1 mM EDTA, 0.2% Triton X-100.
# Human FAAH assay; Experimental Protocol: A 0.1 mg/mL Human FAAH solution is made up in FAAH reaction buffer, and 24 ul pipetted into a 384 well plate. To this is added 1 uL of a 3 fold serially diluted inhibitor from a DMSO stock solution. The FAAH solution and inhibitor are incubated for 30 minutes at room temperature. The FAAH reaction is initiated by the addition of 25 uL of 40 uM AMC Arachidonoyl Amide in FAAH reaction buffer, yielding a final reaction human FAAH preparation concentration of 0.05 mg/ml and AMC-Arachidonoyl substrate concentration of 20 uM, reaction volume 50 uL. The reaction is allowed to proceed for 4 hours at room temperature. […] The microtiter plate in read in the envision plate reader.
row,Structure (SMILES),Ki
1,NCCOB(c1ccccc1)c1ccccc1 [Compound I-125],> 1000 nM
2,OB(O)c1ccc(-c2ccccc2)cc1 [Compound I-187],10 to 100 nM

# Same assay, conditions: Table 1, human FAAH (no asterisk); read-out: Activity (Ki)
row,Structure (SMILES),Ki
1,OB(O)c1cccc2[nH]ccc12 [Compound I-100],> 1000 nM
2,OB(O)c1ccc2cc[nH]c2c1 [Compound I-101],> 1000 nM
3,Cn1ccc2ccc(B(O)O)cc21 [Compound I-102],> 1000 nM
4,OB(O)c1ccc2c(c1)CCO2 [Compound I-103],> 1000 nM
5,O=Cc1ccc(B(O)O)c2ccccc12 [Compound I-104],10 to 1000 nM
6,OB(O)c1ccccc1F [Compound I-105],10 to 1000 nM
7,OB(O)/C=C/c1ccccc1 [Compound I-106],> 1000 nM
8,OB(O)c1ccccc1 [Compound I-107],> 1000 nM
9,OB(O)c1ccc2nccn2c1 [Compound I-109],> 1000 nM
10,Cc1ccc(B(O)O)c(F)c1 [Compound I-110],10 to 1000 nM
11,OB(O)c1cccc2ccccc12 [Compound I-111],10 to 1000 nM
12,OB(O)c1cccc2cccnc12 [Compound I-112],> 1000 nM
13,OB(O)c1cccc2ncccc12 [Compound I-113],10 to 1000 nM
14,CC(C)(C)OC(=O)n1c(B(O)O)cc2cc(OCc3ccccc3)ccc21 [Compound I-114],> 1000 nM
15,CC(C)(C)OC(=O)n1c(B(O)O)cc2c(OCc3ccccc3)cccc21 [Compound I-115],> 1000 nM
16,Cn1c(B(O)O)cc2c(OCc3ccccc3)cccc21 [Compound I-116],> 1000 nM
17,COc1ccc(CN(Cc2ccc(OC)cc2)S(=O)(=O)c2ccc(B(O)O)cc2)cc1 [Compound I-117],> 1000 nM
18,COc1ccc(CN(Cc2ccccc2)S(=O)(=O)c2ccc(B(O)O)cc2)cc1 [Compound I-118],10 to 1000 nM
19,O=S(=O)(NCC1CCCCC1)c1ccc(B(O)O)cc1 [Compound I-119],10 to 1000 nM
20,COc1ccc(CNS(=O)(=O)c2ccc(B(O)O)cc2)cc1 [Compound I-120],10 to 100 nM
21,Cc1nnc(-c2ccc(B(O)O)cc2)o1 [Compound I-121],10 to 100 nM
22,COc1ccc(CNC(=O)Nc2ccc(B3OC(C)(C)C(C)(C)O3)cc2)cc1 [Compound I-122],10 to 1000 nM
23,O=C(NCCc1ccccc1)c1ccc(B(O)O)cc1 [Compound I-123],< 10 nM

row,Structure (SMILES),Ki
1,OB(O)c1ccc(OCCn2cccn2)cc1 [Compound I-124],10 to 100 nM
2,CC1(C)OB(c2ccc(/C=C\c3ccccc3)cc2)OC1(C)C [Compound I-126],> 1000 nM
3,OB(O)c1ccc2[nH]ccc2c1 [Compound I-128],> 1000 nM
4,O=C(c1ccc(Oc2ccccc2)cc1)C(F)(F)F [Compound I-132],> 1000 nM
5,CC(C)(C)OC(=O)n1c(B(O)O)cc2ccccc21 [Compound I-133],> 1000 nM
6,Cc1cc(OCc2ccccc2)ccc1B(O)O [Compound I-134],10 to 100 nM
7,OB(O)c1ccc(-c2cccs2)s1 [Compound I-135],10 to 1000 nM
8,O=Cc1ccc(-c2ccccc2)c(F)c1 [Compound I-136],> 1000 nM
9,CCCCOc1ccc(B(O)O)c(C)c1 [Compound I-138],10 to 1000 nM
10,OB(O)c1ccc(N2CCOCC2)cc1 [Compound I-139],10 to 1000 nM
11,OB(O)c1cccc(OCc2ccccc2Cl)c1 [Compound I-140],10 to 100 nM
12,OB(O)c1cccc(OCc2cccc(Cl)c2)c1 [Compound I-141],10 to 100 nM
13,OB(O)c1c(F)ccc(OCc2ccccc2)c1F [Compound I-143],> 1000 nM
14,OB(O)c1ccc(OCc2ccccc2)cc1F [Compound I-146],< 10 nM
15,OB(O)c1ccc(OCc2cccc(Br)c2)c(Cl)c1 [Compound I-147],< 10 nM
16,Cc1cc(B(O)O)cc(C)c1OCc1cccc(Cl)c1 [Compound I-148],< 10 nM
17,OB(O)c1ccc(OCc2ccc(F)cc2)c(Cl)c1 [Compound I-152],< 10 nM
18,OB(O)c1ccc(OCc2cccc(Cl)c2)c(Cl)c1 [Compound I-154],< 10 nM
19,OB(O)c1ccc(OC2CCCCO2)cc1 (centres unmarked) [Compound I-158],10 to 100 nM
20,OB(O)c1ccc2c(c1)Oc1ccccc1S2 [Compound I-159],> 1000 nM
21,OB(O)c1cc2ccccc2nc1Cl [Compound I-160],> 1000 nM
22,CCCCCc1ccc(B(O)O)cc1 [Compound I-161],< 10 nM
23,OB(O)c1ccc(C2CCCCC2)cc1 [Compound I-162],< 10 nM

row,Structure (SMILES),Ki
1,O=C(Nc1ccc(B(O)O)cc1)OCc1ccccc1 [Compound I-163],10 to 100 nM
2,O=C(NCc1ccccc1)c1ccc(B(O)O)cc1 [Compound I-164],< 10 nM
3,O=C(Nc1ccccc1)c1cccc(B(O)O)c1 [Compound I-165],> 1000 nM
4,O=C(NCc1ccco1)c1ccc(B(O)O)cc1 [Compound I-167],10 to 100 nM
5,OB(O)c1ccc2cc(O)ccc2c1 [Compound I-168],10 to 100 nM
6,O=C(Nc1ccccc1)c1ccc(B(O)O)cc1 [Compound I-169],10 to 100 nM
7,O=C(c1ccc(B(O)O)cc1)N1CCOCC1 [Compound I-171],10 to 1000 nM
8,O=C(OCc1ccccc1)c1ccc(B(O)O)cc1 [Compound I-173],< 10 nM
9,OB(O)c1cc2ccccc2o1 [Compound I-176],> 1000 nM
10,OB(O)c1ccc2ccccc2c1 [Compound I-178],10 to 100 nM
11,OB(O)c1ccc2c3c(cccc13)CC2 [Compound I-181],10 to 1000 nM
12,OB(O)c1ccccc1OCc1ccccc1 [Compound I-182],> 1000 nM
13,OB(O)c1cc2ccccc2c2ccccc12 [Compound I-183],> 1000 nM
14,COc1ccc2cc(B(O)O)ccc2c1 [Compound I-184],10 to 100 nM
15,OB(O)c1ccc(-c2ccccc2)cc1F [Compound I-185],< 10 nM
16,OB(O)c1cccc(-c2ccccc2)c1 [Compound I-186],10 to 1000 nM
17,OB(O)c1ccc(-c2ccccc2)c(F)c1 [Compound I-194],< 10 nM
18,OB(O)c1ccc(-c2ccccc2)s1 [Compound I-196],10 to 100 nM
19,OB(O)c1csc2ccccc12 [Compound I-197],10 to 100 nM
20,OB(O)c1ccc(-c2ccc(B(O)O)cc2)cc1 [Compound I-198],10 to 100 nM
21,O=C(c1ccccc1)c1ccc(B(O)O)cc1 [Compound I-202],< 10 nM
22,OB(O)c1ccc(OC(F)(F)F)cc1 [Compound I-204],10 to 100 nM

# Same assay, conditions: Table 2, human FAAH (no asterisk); read-out: Activity (Ki)
row,Structure (SMILES),Ki
1,OB(O)c1ccc(OCc2cn(C3CCCC3)nn2)cc1F [II-1],10 to 100 nM
2,OB(O)c1ccc(-c2ccc(F)c(F)c2)cc1F [II-2],< 10 nM
3,Cc1ccc(-c2ccc(B(O)O)c(F)c2)cc1F [II-3],< 10 nM
4,CN(C)c1cccc(-c2ccc(B(O)O)c(F)c2)c1 [II-4],< 10 nM
5,O=C1C[N+]2(Cc3ccccc3)CC(=O)O[B-]2(c2ccc(-c3cccc(F)c3)cc2F)O1 (centres unmarked) [II-5],< 10 nM
6,OB(O)c1ccc(OCCc2ccccn2)cc1F [II-6],< 10 nM
7,OB(O)c1ccc(-c2nnc(-c3ccco3)o2)cc1 [II-7],< 10 nM
8,OB(O)c1ccc(OCCc2ccccc2)cc1F [II-8],< 10 nM
9,O=C(CCc1ccccc1)c1ccc(B(O)O)cc1 [II-9],< 10 nM
10,OB(O)c1ccc(-c2ccc(-c3ccccc3)c(F)c2)cc1F [II-10],< 10 nM
11,OB(O)c1ccc(-c2cccc(F)c2)cc1F [II-11],< 10 nM
12,OB(O)c1ccc(Oc2cccc(F)c2)cc1F [II-12],< 10 nM
13,OB(O)c1ccc(-c2cccnc2)cc1F [II-13],10 to 100 nM
14,O=C1c2ccccc2C(=O)N1Cc1ccc(B(O)O)cc1 [II-14],10 to 100 nM
15,O=C(c1ccccc1)c1cc2cc(B(O)O)ccc2o1 [II-15],10 to 100 nM
16,OB(O)c1ccc(-c2cccc3ccccc23)cc1F [II-16],10 to 100 nM

# — patent publication US8329675B2, “Inhibitors of fatty acid amide hydrolase” (Infinity Pharmaceuticals, Inc., priority 2006, dated 2012)
